Data published in US11453642B2, “Oxygenated amino- or ammonium-containing sulfonic acid, phosphonic acid and carboxylic acid derivatives and their medical use” (GRI BIO, INC., priority 2011, dated 2022).
Read-outs that look alike come from different tables or passages of the source.

Test system: DTH response in mice
Assay type: in vivo
Conditions: DTH; for Inhibition of mouse ear swelling: 24 h after challenge; for inhibition relative to that of the high dose of dexamethasone: versus dexamethasone 1 mg/kg
Description: The anti-inflammatory and anti-allergic effects of compounds 1a and 1c were assessed in a mouse model of skin delayed-type hypersensitivity (DTH) reactions and compared to a vehicle control and to the reference drug dexamethasone. DTH reactions are antigen-specific cell-mediated immune responses, driven primarily by T helper type 1 (Th1) cells, similar to the tuberculin immunization response. The immune reaction induced by an ovalbumin challenge to animals previously sensitized with ovalbumin in Complete Freund's Adjuvant, is characterized by swelling (edema) at the site of challenge, e.g. the mouse ear. Dexamethasone, an anti-inflammatory steroid, reduces cell-mediated immune responses and was employed to validate the responsiveness of the assay to pharmacological treatment.
Female BALB/cJW mice were bred at the University of Lodz, Lodz, Poland and housed in groups of 8 in makrolon cages with a 12 h light-dark cycle. Mice were given free access to food (Agropol S.j., Motycz, Poland) and water.
Sensitization: The protein antigen, ovalbumin, was reconstituted in PBS at 4 mg/ml. An ovalbumin-CFA emulsion was prepared by mixing the protein solution with the CFA suspension at a ratio of 1:1, using two Luer-lock syringes. The emulsion was tested by putting a drop of emulsion onto PBS; if the emulsion remained as a tight droplet on the PBS, the emulsion was deemed ready. Mice were sensitized by subcutaneously injecting 25 μL of emulsion into each side of the tail (100 μg ovalbumin per mouse).
Challenge: On the sixth day after sensitization, DTH was elicited by challenging animals subcutaneously (gauge 30 needle, B. Braun Melsungen, Melsungen, Germany) in the left ears with 10 μL of a 1% suspension of heat-aggregated ovalbumin (HOVA) (100 μg ovalbumin per mouse). The right ears were administered subcutaneously with PBS and served to determine the individual differences in ear thicknesses. HOVA was prepared by heating a 5% solution of ovalbumin in saline for 1 h at 80° C. with occasional swirling. After cooling to room temperature and centrifugation (400 g. 10 min at 4° C.), the pellet was washed twice with saline, resuspended at 2% in PBS and aliquots stored at −30° C. Before injection, HOVA was diluted with an equal volume of PBS and sonicated. Ear thickness was measured with a precise spring-loaded caliper (Art. No. 7309, Mitutoyo, Kawasaki, Japan) before challenge, and 24 h after challenge.
Sensitization, challenge and ear thickness measurement were performed under anesthesia (ketamine 80 mg/kg plus xylazine 8 mg/kg, intraperitoneally).
The anti-inflammatory effects of compounds 1a and 1c were compared to a vehicle control (0.5% methyl cellulose solution) and to the reference drug, dexamethasone. Test compounds were given at 25 or 100 mg/kg orally by gavage (Art. No. 432093, Harvard Apparatus GmbH, March-Hugstetten, Germany) 16 h and 3 h before sensitization and then twice daily with the final dose given 3 h prior to ear challenge (a total of 14 administrations). Dexamethasone was given at 0.1 or 1 mg/kg orally by gavage 3 h before sensitization and once daily with the final dose given 3 h prior to antigen challenge (a total of 7 administrations). All administrations were given in a volume of 10 ml/kg.
To account for individual variability, the increase in right ear thickness, before and 24 h after administration of PBS, was subtracted from the HOVA-induced increase in left ear thickness. The increase in ear thickness was calculated by the difference between ear thickness before and 24 h after antigen challenge. Percent inhibition of ear swelling was calculated according to the following formula: % inhibition=100×(IETvehicle−IETcompound)/IETvehicle where IET=(ET24 hrs pc−ETpredose)HOVA-treated ears−(ET24 hrs pc−ETpredose)PBS-treated ears • (IET, increase ear thickness; ET, ear thickness; pc, post challenge)
Mean and standard deviation (SD) were calculated from individual ear edema values. […]

[1] = 100 mg/kg orally twice daily (14 administrations)

CCCCCCCCCCCCN(C)CC(O)CS(=O)(=O)O (centres unmarked) [Compound 1c, 2-hydroxy-3-(N-methyldodecylammonio)propanesulfonate]
Inhibition of mouse ear swelling [1]: 41% | inhibition relative to that of the high dose of dexamethasone: 77%

CCCCCCCCCCCCCCCCN(C)CC(O)CS(=O)(=O)O (centres unmarked) [Compound 1a, 2-hydroxy-3-(N-methylhexadecylammonio)propane-sulfonate]
Inhibition of mouse ear swelling (25 mg/kg orally twice daily (14 administrations)): 49% | Inhibition of mouse ear swelling [1]: 52% | inhibition relative to that of the high dose of dexamethasone: up to 98%
